The values that follow are results of earlier work, collected in US20230029485A1 (priority 2021, published 2023).

Conditions in all cases: in vivo
Data set [1] has as its system metastatic colorectal cancer.
Data set [2] deals with SARS-CoV-2.
Data set [3] relates to SARS-CoV-2. This is another data set of the same source.

Take `O=c1[nH]cc(F)c(=O)[nH]1` [5-fluorouracil]: in data set [1], the objective response rate result is recorded as “around 20%”.
As for `CCC(CC)COC(=O)[C@H](C)N[P@](=O)(OC[C@H]1O[C@@](C#N)(c2ccc3c(N)ncnn23)[C@H](O)[C@@H]1O)Oc1ccccc1` [RDV, Remdesivir], in the data set on SARS-CoV-2 [2], the “adverse events, share of patients” value is 60.3%.
Take `CCN(CCO)CCCC(C)Nc1ccnc2cc(Cl)ccc12` (stereo not shown) [HCQ, hydroxychloroquine]: in the data set on SARS-CoV-2 [3], the “developed QT prolongation” value is given as “nine”; the “good clinical outcome and a virological cure” value was 91.7%.
